We go through 18 molecules from ChEMBL document CHEMBL1151696 (Bioorg Med Chem, 2008).

The structures appear in SMILES notation. Active and inactive are the calls of the source. No cut-off for these calls is given here.

Assay [1] concerns Human respirovirus 3. Format: functional, organism-based.
Assay [2] relates to Human alphaherpesvirus 1. In kind it is functional, organism-based.
Assay [3] relates to Vesicular stomatitis virus. In kind it is functional, organism-based.
Assay [4] has as its target Glutamate NMDA receptor. Put plainly: Antagonist activity at NMDA receptor in cerebellar granule neurons assessed as inhibition of glutamate-induced increase in intracellular calcium concentration by fluorometric assay. In kind it is functional, cell-based. Background: Calcium flux is commonly read through the fluorescence of an indicator in the cells.
Assay [5] concerns Feline coronavirus. Format: functional, organism-based.
Assay [6] relates to Human alphaherpesvirus 2. In kind it is functional, organism-based.
Assay [7] has as its target Glutamate NMDA receptor. The assay is described as follows: Antagonist activity at NMDA receptor in cerebellar granule neurons assessed as inhibition of NMDA-induced increase in intracellular calcium concentration by fluorometric assay. In kind it is functional, cell-based.
Assay [8] relates to Respiratory syncytial virus. In kind it is functional, organism-based.
Assay [9] concerns Punta Toro virus. In kind it is functional, organism-based.
Assay [10] relates to Mammalian orthoreovirus 1. Format: functional, organism-based.
Assay [11] has as its system Sindbis virus. Format: functional, organism-based.
The test system of assay [12] is Coxsackievirus B4. Format: functional, organism-based.
The species entered for assay [13] is Rattus norvegicus. Put plainly: Inhibition of [3H]dopamine uptake in Wistar rat striatum synaptosomes at 100 uM by scintillation spectrometry. Format: functional, subcellular. Set-up: scale not given: the % may be the effect or the level left.

`CNC12CC3CC(CC1C3)C2`: the outcome in assay [1], in assay [2], in [3], in assay [5], in assay [6] and in assay [8] was inactive. In addition, the outcome in assay [9], in assay [10], in assay [11] and in [12] was inactive. The values for the IC50 in [4] and in assay [7] were 205 µM and 65 µM, respectively. The molecule further displayed an Activity in assay [13] of 65.2%.

With `CNCC12CC3(C)CC1CC3(C)C2`, the result in assay [1], in [2], in assay [3], in assay [5], in assay [6] and in assay [8] was inactive. Further, the outcome in assay [9], in [10], in [11] and in [12] was inactive. Also, the 50% inhibitory concentration (IC50) in assay [4] and in assay [7] was above 200 µM in each case. Also, the Activity in assay [13] was 57.3%.

Regarding `Fc1ccc(CNC23CC4CC(CC2C4)C3)cc1`, the outcome in [1], in assay [2], in assay [3], in assay [5], in assay [6] and in [8] was inactive. Besides, the outcome in assay [9], in [10], in [11] and in assay [12] was inactive. Further, the half-inhibitory concentration (IC50) in [4] and in assay [7] was above 200 µM each time. Also, in assay [13], the Activity came to 81.1%.

For the molecule `CNCC12CC3CC(CC1C3)C2`, the result in assay [1], in assay [2], in assay [3], in [5], in assay [6] and in assay [8] was inactive. The outcome in assay [9], in assay [10], in assay [11] and in [12] was inactive. Further, the IC50 (usually the concentration that inhibits the measured activity by half) was above 500 µM in assay [4] and 71 µM in assay [7]. The Activity in assay [13] was 76.3%.

In the case of `NC(N)=NCC12CC3CC(CC1C3)C2`, the half-inhibitory concentration (IC50) in assay [4] came to 453 µM; in assay [7], 25 µM.

Regarding `COc1ccc(CNC23CC4CC(CC2C4)C3)cc1`, the outcome in assay [1], in assay [2], in assay [3], in assay [5], in [6] and in [8] was inactive. Moreover, the outcome in assay [9], in [10], in assay [11] and in [12] was inactive. In addition, the IC50 in assay [4] and in [7] was above 200 µM each time. For the same molecule, in [13], the Activity was 63.9%.

Turning to `CN(C)CC12CC3CC(CC1C3)C2`, the result in assay [1], in assay [2], in [3], in assay [5], in assay [6] and in assay [8] was inactive. Moreover, the outcome in assay [9], in assay [10], in assay [11] and in assay [12] was inactive. Besides, the IC50 in assay [4] and in assay [7] was above 200 µM in each case. Besides, in [13], the Activity came out at 62.5%.

As to `COc1ccccc1CNC12CC3CC(CC1C3)C2`, the outcome in [1], in assay [2], in assay [3], in assay [5], in assay [6] and in [8] was inactive. Further, the outcome in assay [9], in assay [10], in assay [11] and in assay [12] was inactive. Further, the concentration for half-maximal inhibition (IC50) in [4] is above 500 µM; in [7], 92 µM. For the same molecule, in assay [13], the Activity turned out to be 58.3%.

In the case of `CC12CC3CC1(C)CC3(NCc1ccccc1)C2`, the result in assay [1], in assay [2], in assay [3], in assay [5], in assay [6] and in assay [8] was inactive. Also, the outcome in [9], in assay [10], in [11] and in [12] was inactive. The figures for the IC50 in assay [4] and in assay [7] were 143 µM and 70 µM, respectively.

For the molecule `c1csc(CNC23CC4CC(CC2C4)C3)c1`, the result in assay [1], in [2], in [3], in assay [5], in assay [6] and in assay [8] was inactive. For the same molecule, the result in assay [9], in assay [10], in assay [11] and in [12] was inactive. Also, the 50% inhibitory concentration (IC50) was 384 µM in [4] and 17 µM in assay [7]. This molecule also yielded an Activity in assay [13] of 47.7%.

Regarding `C1CCN(C23CC4CC(CC2C4)C3)CC1`, the result in assay [1], in [2], in [3], in [5], in [6] and in assay [8] was inactive. Also, the result in [9], in assay [10], in assay [11] and in assay [12] was inactive. The concentration for half-maximal inhibition (IC50) in [4] is above 500 µM; in [7], 45 µM. The Activity in [13] amounted to 68.5%.

On to `CN(C)CC12CC3(C)CC1CC3(C)C2`, for which the outcome in [1], in assay [2], in assay [3], in [5], in [6] and in assay [8] was inactive. Moreover, the outcome in assay [9], in assay [10], in assay [11] and in assay [12] was inactive. For the same molecule, the IC50 in assay [4] and in assay [7] was above 200 µM throughout.

Consider `CC12CC3CC1(C)CC3(NCc1cccs1)C2`, for which the outcome in assay [1], in assay [2], in assay [3], in [5], in assay [6] and in assay [8] was inactive. In addition, the outcome in [9], in assay [10], in [11] and in assay [12] was inactive. The IC50 came to 204 µM in assay [4] and 80 µM in [7].

Consider `CC12CC3CC(C)(C1)CC(N)(C3)C2`, for which, in [13], the Activity stood at 53.7%.

As for `N=C(N)NCC12CC3CC(CC1C3)C2`, the result in assay [1], in [2], in assay [3], in [5], in assay [6] and in assay [8] was inactive. For the same molecule, the outcome in assay [9], in assay [10], in [11] and in [12] was inactive. In addition, the Activity in assay [13] is 119%.

Take `CN(Cc1ccccc1)C12CC3(C)CC1CC3(C)C2`: the outcome in [1], in [2], in [3], in assay [5], in [6] and in assay [8] was inactive. The outcome in assay [9], in [10], in [11] and in [12] was inactive. Also, the 50% inhibitory concentration (IC50) in assay [4] and in assay [7] was above 200 µM throughout.

Consider `CC12CC3CC1(C)CC3(CNC(=N)N)C2`, for which the result in [1], in assay [2], in [3], in [5], in assay [6] and in assay [8] was inactive. For the same molecule, the outcome in [9], in assay [10], in assay [11] and in [12] was inactive. Also, the IC50 in assay [4] was 104 µM; in assay [7], 7.1 µM.

Consider `CNC12CC3(C)CC1CC3(C)C2`, for which the outcome in assay [1], in assay [2], in [3], in assay [5], in assay [6] and in assay [8] was inactive. Moreover, the outcome in assay [9], in assay [10], in assay [11] and in assay [12] was inactive. Further, in [7], the IC50 was 35 µM. The Activity in [13] came out at 74.6%.
